According to the NIST ThermoML archive (doi:10.1021/je100952p):
± gives the expanded uncertainty stated by the source.

Assay: activity coefficient (dimensionless); of the first substance listed, at infinite dilution; xn = mol fraction of the nth substance listed
Details: 101 kPa, Liquid, Chromatography, x1 = 0

| SMILES | activity coefficient (303.15 K) | activity coefficient (313.15 K) | activity coefficient (323.15 K) | activity coefficient (333.15 K) | activity coefficient (343.15 K) | activity coefficient (353.15 K) | activity coefficient (363.15 K) |
| --- | --- | --- | --- | --- | --- | --- | --- |
| Cc1ccccc1C [1,2-dimethylbenzene] + CCCCCCCCCCn1cc[n+](C)c1.F[B-](F)(F)F | 1.79 ± 0.11 | 1.77 ± 0.11 | 1.75 ± 0.11 | 1.73 ± 0.11 | 1.72 ± 0.11 | 1.72 ± 0.11 | 1.71 ± 0.11 |
| Cc1cccc(C)c1 [1,3-dimethylbenzene] + CCCCCCCCCCn1cc[n+](C)c1.F[B-](F)(F)F | 2.03 ± 0.13 | 2.02 ± 0.13 | 1.97 ± 0.13 | 1.95 ± 0.13 | 1.94 ± 0.12 | 1.92 ± 0.12 | 1.91 ± 0.12 |
| Cc1ccc(C)cc1 [1,4-dimethylbenzene] + CCCCCCCCCCn1cc[n+](C)c1.F[B-](F)(F)F | 1.99 ± 0.13 | 1.96 ± 0.13 | 1.93 ± 0.12 | 1.92 ± 0.12 | 1.91 ± 0.12 | 1.88 ± 0.12 | 1.86 ± 0.12 |
| CC(C)CC(C)(C)C [2,2,4-trimethylpentane] + CCCCCCCCCCn1cc[n+](C)c1.F[B-](F)(F)F | 9.13 ± 0.59 | 9.11 ± 0.59 | 9.1 ± 0.6 | 9.08 ± 0.59 | 9.07 ± 0.59 | 9.07 ± 0.59 | 9.06 ± 0.59 |
| c1ccccc1 [benzene] + CCCCCCCCCCn1cc[n+](C)c1.F[B-](F)(F)F | 1.15 ± 0.07 | 1.14 ± 0.07 | 1.11 ± 0.07 | 1.1 ± 0.1 | 1.08 ± 0.06 | 1.07 ± 0.06 | 1.06 ± 0.06 |
| C1CCCCC1 [cyclohexane] + CCCCCCCCCCn1cc[n+](C)c1.F[B-](F)(F)F | 4.42 ± 0.29 | 4.43 ± 0.29 | 4.43 ± 0.29 | 4.47 ± 0.29 | 4.5 ± 0.3 | 4.56 ± 0.29 | 4.69 ± 0.3 |
| C1=CCCCC1 [cyclohexene] + CCCCCCCCCCn1cc[n+](C)c1.F[B-](F)(F)F | 3.03 ± 0.2 | 3.01 ± 0.19 | 2.99 ± 0.19 | 2.97 ± 0.19 | 2.96 ± 0.19 | 2.96 ± 0.19 | 2.96 ± 0.19 |
| CCc1ccccc1 [ethylbenzene] + CCCCCCCCCCn1cc[n+](C)c1.F[B-](F)(F)F |  | 2.02 ± 0.13 | 2.01 ± 0.13 | 1.99 ± 0.13 | 1.98 ± 0.13 | 1.97 ± 0.13 | 1.96 ± 0.13 |
| CCCCCCC [heptane] + CCCCCCCCCCn1cc[n+](C)c1.F[B-](F)(F)F | 8.01 ± 0.52 | 7.97 ± 0.52 | 7.95 ± 0.51 | 7.93 ± 0.51 | 7.91 ± 0.51 | 7.89 ± 0.51 | 7.88 ± 0.51 |
| CCCCCC [hexane] + CCCCCCCCCCn1cc[n+](C)c1.F[B-](F)(F)F | 7.36 ± 0.48 | 7.16 ± 0.46 | 7.03 ± 0.45 | 6.94 ± 0.45 | 6.86 ± 0.44 | 6.81 ± 0.44 | 6.68 ± 0.43 |
| CC1CCCCC1 [methylcyclohexane] + CCCCCCCCCCn1cc[n+](C)c1.F[B-](F)(F)F | 5.19 ± 0.34 | 5.23 ± 0.34 | 5.24 ± 0.34 | 5.28 ± 0.34 | 5.32 ± 0.34 | 5.36 ± 0.35 | 5.39 ± 0.35 |
| CCCCCCCCC [nonane] + CCCCCCCCCCn1cc[n+](C)c1.F[B-](F)(F)F | 10.7 ± 0.69 | 10.7 ± 0.69 | 10.7 ± 0.69 | 10.7 ± 0.69 | 10.7 ± 0.69 | 10.7 ± 0.69 | 10.6 ± 0.69 |
| CCCCCCCC [octane] + CCCCCCCCCCn1cc[n+](C)c1.F[B-](F)(F)F | 9.3 ± 0.6 | 9.26 ± 0.6 | 9.21 ± 0.6 | 9.2 ± 0.6 | 9.17 ± 0.59 | 9.16 ± 0.59 | 9.13 ± 0.59 |
| CCCCC [pentane] + CCCCCCCCCCn1cc[n+](C)c1.F[B-](F)(F)F | 6.88 ± 0.45 | 6.72 ± 0.43 | 6.53 ± 0.42 | 6.29 ± 0.41 | 6.12 ± 0.4 | 6.01 ± 0.39 | 5.93 ± 0.38 |
| C=Cc1ccccc1 [styrene] + CCCCCCCCCCn1cc[n+](C)c1.F[B-](F)(F)F |  | 1.25 ± 0.08 | 1.22 ± 0.07 | 1.2 ± 0.1 | 1.18 ± 0.07 | 1.16 ± 0.07 | 1.14 ± 0.07 |
| Cc1ccccc1 [toluene] + CCCCCCCCCCn1cc[n+](C)c1.F[B-](F)(F)F | 1.52 ± 0.09 | 1.49 ± 0.09 | 1.47 ± 0.09 | 1.43 ± 0.09 | 1.41 ± 0.09 | 1.4 ± 0.1 | 1.35 ± 0.08 |
